Source: ChEMBL document CHEMBL1154381, “Mining biologically-active molecules for inhibitors of fatty acid amide hydrolase (FAAH): identification of phenmedipham and amperozide as FAAH inhibitors” (Bioorg Med Chem Lett, 2009)

Key:
[1] = biological target: T1, Fatty-acid amide hydrolase 1 (Homo sapiens, UniProt O00519); assay: Inhibition of human FAAH-mediated hydrolysis of [3H]AEA
T1 sequence (O00519 whole entry): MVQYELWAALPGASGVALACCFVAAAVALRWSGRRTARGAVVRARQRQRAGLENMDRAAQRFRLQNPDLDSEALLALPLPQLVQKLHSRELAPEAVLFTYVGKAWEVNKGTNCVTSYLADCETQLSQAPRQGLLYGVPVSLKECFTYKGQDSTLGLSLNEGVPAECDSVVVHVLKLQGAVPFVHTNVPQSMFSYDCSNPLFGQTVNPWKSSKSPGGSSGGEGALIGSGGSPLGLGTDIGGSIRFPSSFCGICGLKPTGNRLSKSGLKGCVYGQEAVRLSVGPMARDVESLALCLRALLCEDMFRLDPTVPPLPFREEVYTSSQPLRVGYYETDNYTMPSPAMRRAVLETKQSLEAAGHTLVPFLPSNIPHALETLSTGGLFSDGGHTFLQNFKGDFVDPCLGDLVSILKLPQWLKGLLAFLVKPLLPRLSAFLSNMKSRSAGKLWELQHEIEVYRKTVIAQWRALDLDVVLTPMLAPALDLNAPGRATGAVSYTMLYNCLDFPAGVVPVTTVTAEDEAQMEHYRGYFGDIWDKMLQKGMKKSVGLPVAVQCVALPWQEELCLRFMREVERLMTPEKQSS

[2] = biological target: T1, Fatty-acid amide hydrolase 1; assay: Inhibition of human FAAH
[3] = Toxicity in rat; format: organism-based; conditions: in vivo
[4] = biological target: T2, Fatty-acid amide hydrolase 1 (Rattus norvegicus, UniProt P97612); assay: Inhibition of rat FAAH
T2 sequence (P97612 whole entry): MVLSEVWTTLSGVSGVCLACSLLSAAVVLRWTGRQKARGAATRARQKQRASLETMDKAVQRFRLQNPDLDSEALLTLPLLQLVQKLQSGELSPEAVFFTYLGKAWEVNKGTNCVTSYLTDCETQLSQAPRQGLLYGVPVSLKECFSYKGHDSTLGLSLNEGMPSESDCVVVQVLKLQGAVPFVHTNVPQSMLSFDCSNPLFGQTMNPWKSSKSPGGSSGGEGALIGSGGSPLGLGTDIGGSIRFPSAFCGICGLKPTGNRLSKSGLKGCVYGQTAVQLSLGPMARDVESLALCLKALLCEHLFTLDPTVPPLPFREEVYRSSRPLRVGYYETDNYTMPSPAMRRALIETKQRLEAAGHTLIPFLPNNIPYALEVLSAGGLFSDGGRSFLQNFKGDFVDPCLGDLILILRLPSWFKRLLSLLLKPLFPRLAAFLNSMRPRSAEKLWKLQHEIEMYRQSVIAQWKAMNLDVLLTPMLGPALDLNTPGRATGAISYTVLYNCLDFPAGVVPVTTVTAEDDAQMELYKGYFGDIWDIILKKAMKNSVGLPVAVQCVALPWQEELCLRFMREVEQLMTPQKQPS

[5] = biological target: T3, Fatty-acid amide hydrolase 1 (Rattus norvegicus) (UniProt P97612); assay: Inhibition of rat FAAH at 10 uM
T3 sequence (whole entry): T2 sequence (P97612 whole entry)

Row | inhibition [5] [%] | SMILES | IC50 [1] [nM] | IC50 [2] [nM] | LD50 [3] [mg/kg] | IC50 [4] [nM]
1 | – | COC(=O)Nc1cccc(OC(=O)Nc2cccc(C)c2)c1 | 152 | 377 | > 8000 | 77
2 | 50 | CCNC(=O)N1CCN(CCCC(c2ccc(F)cc2)c2ccc(F)cc2)CC1 [AMPEROZIDE] | 455 | 1340 | – | –
